Results as given in article PMC7000700, “RyR1-targeted drug discovery pipeline integrating FRET-based high-throughput screening and human myofiber dynamic Ca^2+ assays” (Scientific Reports, 2020).

Assays:
MH-linked RyR1 mutant = system: MH-linked RyR1 mutant; design: method as in PMID 29674523; settings: HEK293 cells; cited from earlier work
RyR2 = RyR2 (Sus scrofa, UniProt A0A5G2R1W3); experiment: FLT-FRET between D-FKBP and A-CaM bound to RyR2 in cardiac SR membranes (dose-response); type: binding, porcine; design: RyR1 in skeletal SR membranes, and RyR2 in cardiac SR membranes; from tissue; host or cells: porcine cardiac left ventricle (crude SR vesicles); settings: RyR2 samples, 30 nM Ca2+
Method: Necessary counter-screens to our pathological RyR1 conditions include evaluating compound effects in healthy conditions and on the cardiac isoform, RyR2. Using the same FRET assay as in HTS, we tested the dose response of key Hits from this screen and the previously HTS-identified RyR1 inhibitor, chloroxine, on healthy (5 mM GSH) and pathological (5 mM GSSG) conditions for both RyR1 in skeletal SR membranes, and RyR2 in cardiac SR membranes.
Skeletal HSR and cardiac CSR (0.4 mg/ml) membranes were independently pre-incubated with 60 nM D-FKBP, for 90 min, at 37 °C, in a solution containing 150 mM KCl, 5 mM GSH, 0.1 mg/mL BSA, 1 µg/mL Aprotinin/Leupeptin, 1 mM DTT and 20 mM PIPES (pH 7.0). To remove unbound D-FKBP, the SR membranes were spun down at 110,000 × g for 20 min, and then resuspended to 1 mg/mL (skeletal HSR) and 2 mg/mL (cardiac CSR) in binding buffer consisting of 150 mM KCl, 5 mM GSSG, 0.1 mg/mL BSA, 1μg/mL Aprotinin/Leupeptin and 20 mM PIPES, pH 7.0. These samples were then incubated with indicated [A-CaM] for 30 min at 22 °C in binding buffer containing 0.065 mM CaCl2 to give 30 nM free Ca^2+ in the presence of 1 mM EGTA (calculated by MaxChelator). This labeled SR sample was applied to the assay plates in 5 μL aliquots using a Multidrop™ Combi reagent dispenser (Thermo Scientific) with a standard-tube. An additional set of the assay plates were loaded with skeletal HSR or cardiac CSR labeled with only D-FKBP (no added A-CaM).
FLT measurements were conducted in a top-read FLT-PR designed and built by Fluorescence Innovations, Inc[33]. AF488 donor fluorescence was excited with a 473-nm microchip laser from Concepts Research Corporation (Belgium, WI), and emission was acquired with 490-nm long-pass and 517/20-nm band-pass filters (Semrock, Rochester, NY).
FLT waveforms for each well were fit based on a one-exponential decay function using least-squares minimization global-analysis software (Fluorescence Innovations, Inc.), as previously described[19],[33]. FRET efficiency (E) was determined as the fractional decrease of donor FLT (τD), due to the presence of acceptor fluorophore (τDA), using the following equation:1 E=1−τDA/τD,

RyR1 = RyR1 (Sus scrofa, UniProt P16960); experiment: F-FKBP binding to RyR1 by co-sedimentation with skeletal SR membranes; design: using co-sedimentation with pig skeletal and cardiac SR membranes; from tissue; host or cells: pig skeletal muscle (heavy SR membranes); species or system pig; settings: RyR1, 10 μM Hit, 30 nM Ca2+, 5 mM GSSG or GSH
Chain of RyR1 (P16960 whole entry): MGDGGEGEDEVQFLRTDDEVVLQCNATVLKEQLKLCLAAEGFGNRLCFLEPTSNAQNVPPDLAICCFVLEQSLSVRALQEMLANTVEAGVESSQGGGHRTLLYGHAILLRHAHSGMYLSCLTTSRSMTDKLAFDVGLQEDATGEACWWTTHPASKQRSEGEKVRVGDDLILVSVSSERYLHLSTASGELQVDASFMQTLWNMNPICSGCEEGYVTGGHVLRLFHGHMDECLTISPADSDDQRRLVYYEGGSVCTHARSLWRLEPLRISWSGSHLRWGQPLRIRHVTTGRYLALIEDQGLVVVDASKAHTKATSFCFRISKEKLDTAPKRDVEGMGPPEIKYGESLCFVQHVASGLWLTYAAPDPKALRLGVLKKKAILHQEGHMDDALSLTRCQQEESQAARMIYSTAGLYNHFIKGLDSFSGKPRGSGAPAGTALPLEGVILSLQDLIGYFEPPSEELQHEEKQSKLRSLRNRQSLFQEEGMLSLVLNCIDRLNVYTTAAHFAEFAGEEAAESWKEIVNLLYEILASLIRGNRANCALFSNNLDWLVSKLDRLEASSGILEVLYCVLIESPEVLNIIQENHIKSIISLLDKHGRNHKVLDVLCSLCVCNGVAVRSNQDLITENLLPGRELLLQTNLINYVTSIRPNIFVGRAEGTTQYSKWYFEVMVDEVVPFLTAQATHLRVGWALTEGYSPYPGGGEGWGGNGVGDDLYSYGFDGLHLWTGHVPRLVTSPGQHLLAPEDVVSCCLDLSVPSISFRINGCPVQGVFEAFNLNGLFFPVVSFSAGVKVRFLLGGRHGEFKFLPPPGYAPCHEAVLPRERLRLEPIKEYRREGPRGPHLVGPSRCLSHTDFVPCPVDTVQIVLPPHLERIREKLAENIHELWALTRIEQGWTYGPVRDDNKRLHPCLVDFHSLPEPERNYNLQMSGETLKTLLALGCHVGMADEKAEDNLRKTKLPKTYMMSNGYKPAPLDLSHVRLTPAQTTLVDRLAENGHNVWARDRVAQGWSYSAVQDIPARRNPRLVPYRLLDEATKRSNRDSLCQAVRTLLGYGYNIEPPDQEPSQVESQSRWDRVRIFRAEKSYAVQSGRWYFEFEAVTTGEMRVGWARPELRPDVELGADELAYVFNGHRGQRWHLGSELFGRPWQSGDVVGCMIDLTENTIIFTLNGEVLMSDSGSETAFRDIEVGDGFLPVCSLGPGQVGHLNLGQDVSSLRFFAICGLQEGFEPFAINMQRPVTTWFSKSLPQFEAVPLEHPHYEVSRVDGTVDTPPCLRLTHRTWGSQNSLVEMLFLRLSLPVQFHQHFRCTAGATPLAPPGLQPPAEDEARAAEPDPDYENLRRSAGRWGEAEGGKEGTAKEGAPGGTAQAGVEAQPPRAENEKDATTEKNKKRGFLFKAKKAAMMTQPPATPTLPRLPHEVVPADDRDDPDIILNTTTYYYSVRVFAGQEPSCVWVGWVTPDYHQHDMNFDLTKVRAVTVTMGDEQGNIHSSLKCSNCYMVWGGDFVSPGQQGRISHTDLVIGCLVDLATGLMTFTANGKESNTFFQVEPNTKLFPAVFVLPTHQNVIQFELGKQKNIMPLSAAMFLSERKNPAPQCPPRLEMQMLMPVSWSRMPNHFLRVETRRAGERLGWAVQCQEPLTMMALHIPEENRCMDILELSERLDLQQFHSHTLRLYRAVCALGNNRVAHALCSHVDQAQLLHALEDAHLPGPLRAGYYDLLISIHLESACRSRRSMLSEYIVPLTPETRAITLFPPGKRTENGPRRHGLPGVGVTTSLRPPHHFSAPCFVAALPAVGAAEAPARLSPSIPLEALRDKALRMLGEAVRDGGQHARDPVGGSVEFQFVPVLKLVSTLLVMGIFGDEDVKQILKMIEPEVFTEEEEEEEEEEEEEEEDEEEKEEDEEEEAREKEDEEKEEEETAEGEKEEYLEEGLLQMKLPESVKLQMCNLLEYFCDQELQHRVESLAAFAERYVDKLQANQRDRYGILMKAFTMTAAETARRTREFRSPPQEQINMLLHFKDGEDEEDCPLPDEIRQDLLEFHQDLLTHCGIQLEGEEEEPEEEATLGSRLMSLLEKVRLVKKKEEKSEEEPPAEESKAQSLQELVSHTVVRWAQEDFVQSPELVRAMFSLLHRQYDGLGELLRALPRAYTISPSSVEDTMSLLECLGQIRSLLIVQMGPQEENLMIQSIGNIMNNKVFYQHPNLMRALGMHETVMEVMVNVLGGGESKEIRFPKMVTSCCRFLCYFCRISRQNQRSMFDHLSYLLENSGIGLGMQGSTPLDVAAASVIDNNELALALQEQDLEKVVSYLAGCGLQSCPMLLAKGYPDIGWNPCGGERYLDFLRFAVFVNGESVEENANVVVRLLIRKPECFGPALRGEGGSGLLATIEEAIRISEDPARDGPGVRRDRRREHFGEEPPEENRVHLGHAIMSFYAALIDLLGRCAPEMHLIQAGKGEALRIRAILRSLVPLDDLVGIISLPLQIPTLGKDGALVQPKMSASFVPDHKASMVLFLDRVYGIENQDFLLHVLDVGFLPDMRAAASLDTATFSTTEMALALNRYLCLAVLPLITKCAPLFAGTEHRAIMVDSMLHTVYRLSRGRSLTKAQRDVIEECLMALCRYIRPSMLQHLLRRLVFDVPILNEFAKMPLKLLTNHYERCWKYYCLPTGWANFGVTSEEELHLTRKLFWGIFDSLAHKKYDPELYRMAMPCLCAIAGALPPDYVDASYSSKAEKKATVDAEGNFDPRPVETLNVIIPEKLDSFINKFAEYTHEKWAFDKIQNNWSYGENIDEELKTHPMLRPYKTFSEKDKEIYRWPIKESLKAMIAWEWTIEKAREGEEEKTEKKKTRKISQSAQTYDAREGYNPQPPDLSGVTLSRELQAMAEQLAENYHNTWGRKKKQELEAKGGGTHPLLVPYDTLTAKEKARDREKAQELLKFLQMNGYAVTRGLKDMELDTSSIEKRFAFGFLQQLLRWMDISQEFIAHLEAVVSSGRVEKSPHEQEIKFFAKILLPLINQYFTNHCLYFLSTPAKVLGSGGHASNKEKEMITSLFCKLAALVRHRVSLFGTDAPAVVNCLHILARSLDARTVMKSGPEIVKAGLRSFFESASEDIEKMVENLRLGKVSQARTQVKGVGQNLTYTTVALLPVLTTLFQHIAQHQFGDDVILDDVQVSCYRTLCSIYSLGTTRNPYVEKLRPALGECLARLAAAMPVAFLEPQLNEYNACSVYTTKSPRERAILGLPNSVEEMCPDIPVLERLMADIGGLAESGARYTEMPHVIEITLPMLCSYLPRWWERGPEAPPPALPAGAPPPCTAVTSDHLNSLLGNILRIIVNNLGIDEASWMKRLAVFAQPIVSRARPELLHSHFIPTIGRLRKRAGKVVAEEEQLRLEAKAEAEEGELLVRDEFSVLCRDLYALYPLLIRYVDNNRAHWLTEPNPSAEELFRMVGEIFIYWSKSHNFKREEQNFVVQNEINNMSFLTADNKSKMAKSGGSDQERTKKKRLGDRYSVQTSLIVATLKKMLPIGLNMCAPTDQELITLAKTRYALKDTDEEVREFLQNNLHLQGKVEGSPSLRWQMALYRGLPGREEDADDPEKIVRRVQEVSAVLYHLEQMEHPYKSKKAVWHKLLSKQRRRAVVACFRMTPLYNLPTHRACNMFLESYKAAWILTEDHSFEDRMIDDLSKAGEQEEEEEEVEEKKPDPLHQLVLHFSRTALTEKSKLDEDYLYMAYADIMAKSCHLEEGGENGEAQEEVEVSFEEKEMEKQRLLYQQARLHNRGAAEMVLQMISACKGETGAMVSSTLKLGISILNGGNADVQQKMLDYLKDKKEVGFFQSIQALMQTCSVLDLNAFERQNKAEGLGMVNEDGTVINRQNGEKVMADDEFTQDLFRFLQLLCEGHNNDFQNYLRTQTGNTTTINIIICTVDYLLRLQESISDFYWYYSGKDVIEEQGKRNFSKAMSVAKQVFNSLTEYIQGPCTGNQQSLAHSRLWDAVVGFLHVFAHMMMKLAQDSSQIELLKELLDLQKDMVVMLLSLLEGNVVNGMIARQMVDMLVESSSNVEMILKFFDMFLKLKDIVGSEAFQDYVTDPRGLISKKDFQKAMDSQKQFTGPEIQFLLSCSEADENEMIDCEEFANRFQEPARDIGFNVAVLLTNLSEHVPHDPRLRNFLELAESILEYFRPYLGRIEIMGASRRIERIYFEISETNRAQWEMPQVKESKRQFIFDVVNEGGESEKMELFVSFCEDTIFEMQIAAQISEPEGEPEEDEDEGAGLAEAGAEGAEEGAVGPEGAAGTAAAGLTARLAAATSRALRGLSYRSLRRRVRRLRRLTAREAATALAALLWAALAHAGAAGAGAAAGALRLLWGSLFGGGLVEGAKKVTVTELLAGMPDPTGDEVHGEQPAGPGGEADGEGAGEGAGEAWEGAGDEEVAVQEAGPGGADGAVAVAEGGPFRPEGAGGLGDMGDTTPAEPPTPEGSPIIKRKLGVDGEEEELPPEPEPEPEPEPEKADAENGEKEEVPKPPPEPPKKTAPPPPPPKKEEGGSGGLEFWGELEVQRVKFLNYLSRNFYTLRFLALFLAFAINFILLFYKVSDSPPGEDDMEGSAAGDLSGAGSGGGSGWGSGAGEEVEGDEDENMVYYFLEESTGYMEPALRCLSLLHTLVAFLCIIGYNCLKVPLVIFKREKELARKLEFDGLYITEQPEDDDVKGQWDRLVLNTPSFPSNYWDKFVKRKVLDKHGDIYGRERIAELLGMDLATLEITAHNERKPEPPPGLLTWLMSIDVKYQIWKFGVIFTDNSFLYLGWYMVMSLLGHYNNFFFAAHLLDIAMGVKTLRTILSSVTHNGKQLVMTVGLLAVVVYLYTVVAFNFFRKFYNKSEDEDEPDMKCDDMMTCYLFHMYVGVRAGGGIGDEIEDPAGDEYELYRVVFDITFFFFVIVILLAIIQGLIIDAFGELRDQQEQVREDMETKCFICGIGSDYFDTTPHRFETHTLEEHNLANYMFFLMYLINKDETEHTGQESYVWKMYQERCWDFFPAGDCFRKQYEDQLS
Method: The Hit-induced effect on FRET between D-FKBP and A-CaM most likely results from one or the combination of factors, including a shift in CaM and/or FKBP12.6 binding, and/or structure of the RyR complex that shifts the D-A distance. Under the same assay conditions as in the primary screen, we assessed the effect of 10 μM Hit on fluorescent FKBP12.6 (F-FKBP) binding to RyRs, using co-sedimentation with pig skeletal and cardiac SR membranes.
Supplementary Fig. 3 Effect of HTS Hits on F-FKBP binding to a) RyR1 in skeletal HSR membranes, and b) RyR2
in cardiac CSR membranes at 30 nM Ca2+ in the presence of 5 mM GSSG or GSH. Results are represented as individual
data points and means ± SEM, n = 4-5. *P < 0.05 by 2-sided Student’s unpaired t-test. […]

| SMILES | Effect on readout of ER Ca2+ phenotypic screen (MH-linked RyR1 mutant) | Effect on FRET (RyR2) | Decrease of F-FKBP binding (RyR1) |
| --- | --- | --- | --- |
| Oc1c(Cl)cc(Cl)c2cccnc12 [chloroxine] | increased RyR1 activity | did not alter FRET | – |
| O=c1c(O)c(-c2cc(O)c(O)c(O)c2)oc2cc(O)cc(O)c12 [myricetin] | – | – | did not alter |
